In a compilation of properties of binary mixtures (doi:10.1021/acs.jpcb.9b04724):

Assay: xn = mol fraction of the nth substance listed
Settings: 101 kPa

CC[n+]1ccn(C)c1.N#C[N-]C#N + CCCC[N+](C)(CCCC)CCCC.N#C[N-]C#N
x1 = 1
Settings	viscosity [mPa·s]
293.15 K	17.41
313.15 K	10.05
333.15 K	6.65

CCCC[N+](C)(CCCC)CCCC.N#C[N-]C#N + CC[n+]1ccn(C)c1.N#C[N-]C#N
viscosity [mPa·s]
Settings	293.15 K	303.15 K	313.15 K	323.15 K	333.15 K	343.15 K	353.15 K
x2 = 0	498	239	127.3	74.9	47.6	32	22.6
x2 = 0.2114	201	–	65.2	42.1	28.7	–	–
x2 = 0.3975	101.3	60.6	39.2	26.8	–	14.44	–
x2 = 0.6047	50.5	–	22.87	16.69	12.65	10.13	8.18
x2 = 0.8003	28.3	19.8	14.56	11.15	9.11	7.26	5.93
